Patent EP0103895A2, “Novel hydroxylamine derivatives, production and use thereof” (MEIJI SEIKA KABUSHIKI KAISHA, priority 1982, dated 1984)
Values joined by “and” are separate entries in the source; they are usually repeats but may differ in a detail not shown here. Equal entries are not always repeated. Where two headings read alike, the source gives them in different places.

Key:
[1] = system: fowl roundworm (Ascaridia galli); assay: Anthelmintic test in chickens artificially infected with fowl roundworm, single oral dose in gelatin capsule, worm bodies counted within 48 hours (Test Examples A1, B1, C1, D1); type: in vivo; details: for inhibition in vivo at 30 mg/kg / inhibition in vivo at 50 mg/kg / inhibition in vivo at 15 mg/kg: Ascaridia galli, po, 48 h, read-out: Anthelmintic effect after 48 hours
Experimental: Chickens infected artificially with fowl roundworm (Ascaridia galli) were employed in groups each consisting of three chickens. Fecal matter testing was conducted before administration of medicine to confirm infection with the worm. The quantity of the compound provided for testing was 10 mg and 20 mg per Kg of body weight, which was orally administered each in a gelatin capsule to the chicken. The number of worm bodies discharged within 48 hours after administration of medicine was counted, the chicken was killed after 48 hours and the number of worm bodies remaining in the enteron was counted to determine the anthelmintic percentage, wherefrom the antihelmintic effect was judged.
The same as that in Test Example Al.
The same as that in Test Example Al except that the compound provided for testing was in quantities of 30 mg and 50 mg per Kg of body weight, which were orally administered to the chickens in gelatin capsules.
The same as that in Test Example Al, except that the compounds provided for testing were used in quantities of 15 mg and 30 mg per Kg of body weight, which were orally administered each in a gelatin capsule to the chicken.

[2] = system: canine filaria; Dirofilaria immitis; assay: Test of anthelmintic effect against canine filaria in naturally infected dogs, subcutaneous injection, microfilaria in blood and adult filaria at autopsy (Test Examples A10, B10, C10, D10); type: in vivo
Experimental: Eight dogs infected with canine filaria; Diro- filaria immitis (naturally infected dogs) were employed in groups each of two dogs.
The compounds provided for tests were Compound Nos. Al, A3 and A12. 20 mg of each was administered by subcutaneous injection per Kg of body weight to each of the two dogs as a suspension in 1% "Tween 80" solution once per day for three days. As control, 3 ml of the 1% "Tween 80" solution was subcutaneously injected into two dogs once per day for three days.
Before administration and on the 10th day after administration, 20 µl of earlobe blood of each dog was sampled and examined to determine the change in microfilaria (mf) according to the concentrated smear color method, and judgement on the effect on microfilaria (mf) was made. Judgement relating to adult filaria was made on the 10th day after the last administration by killing the dogs and carrying out autopsis.
30 mg of each compound was administered by subcutaneous injection per Kg of body weight to each of the two dogs as a suspension in 1% "Tween 80" solution once per day for three days. As control, 3 ml of the 1% "Tween 80" solution was subcutaneously injected into two dogs once per day for three days.
30 mg of each compound was administered by subcutaneous injection per Kg of body weight to each of two dogs as a suspension in 1% "Tween 80" solution once per day for three days. As control, 3 ml of the 1% "Tween 80" solution was subcutaneously injected to two dogs once per day for three days.
20 mg of each compound was administered by subcutaneous injection per kg of body weight once per day for three days to each of two dogs. These compounds were administered as a suspension in 1% "Tween 80" in the case of Compound No.Dl3 and as solutions dissolved in distilled water for injection in the case of Compounds Nos. D10 and D16, respectively. As control, 3 ml of the 1% "Tween 80" solution was subcutaneously injected into two dogs once per day for three days.

[3] = system: fowl roundworm (As. galli); assay: Anthelmintic test in chickens artificially infected with fowl roundworm, compound added to feed, E.P.G. and worm count up to 21st day (Test Examples A2, B2, C2, D2); type: in vivo, Ascaridia galli; details: for inhibition in vivo at 25 ppm / inhibition in vivo at 50 ppm / inhibition in vivo at 20 ppm: Ascaridia galli, 504 h, read-out: Anthelmintic effect; for Change of E.P.G. Before administration: baseline
Experimental: Chickens artificially infected with fowl roundworm (As. galli) were employed in groups each of two chickens.
Fecal matter testing was conducted before initiation of the test and on the 7th, 14th and 21st day after initiation of the test. Reduction in worm egg number was examined by calculating E.P.G. (worm eggs per 1 g of fecal matter), and the number of discharged worm bodies and the number of worm bodies remaining in the enteron when the chicken was killed on 21st day were counted to determine the anthelmintic percentage, from which the anthelmintic effect was judged.

[4] = chickens, 30 mg/Kg orally in gelatin capsule, one value per chicken (No.1-3)
[5] = chickens, 50 mg/Kg orally in gelatin capsule, one value per chicken (No.1-3)
[6] = chicken, 30 mg/Kg oral in gelatin capsule, chickens No.1-3
[7] = chicken, 50 mg/Kg oral in gelatin capsule, chickens No.1-3
[8] = feed or water, chicken, 25 ppm in feed
[9] = feed or water, chicken, 50 ppm in feed
[10] = chicken, 15 mg/Kg oral in gelatin capsule, chickens No.1-3
[11] = po, chickens, 20 ppm added to feed, worm count on 21st day, one value per chicken
[12] = po, chickens, 50 ppm added to feed, worm count on 21st day, one value per chicken
[13] = chickens, 20 ppm added to feed, one value per chicken
[14] = chickens, 50 ppm added to feed, one value per chicken

SMILES: C=CCN(OCC)C(=O)CC [Compound B9, N-allyl-N-propionyl-O-ethylhydroxylamine]
- inhibition in vivo at 30 mg/kg [1, 4]: 100%
- inhibition in vivo at 50 mg/kg [1, 5]: 100%
- inhibition in vivo at 30 mg/kg ([2]; Dirofilaria immitis, sc, 240 h, dogs, administration of 30 mg/Kg repeated three times, given as about 50% or more, read-out: anthelmintic effect against adult filaria): ≥ 50%
- Number of microfilaria/20 µl on 10th day after the last administration ([2]; dog, 30 mg/Kg x 3, subcutaneous injection, suspension in 1% Tween 80): 0 /20 µl
- Effect on adult filaria: Number of worms killed/ Total parasite ([2]; dog, 30 mg/Kg x 3, subcutaneous injection, 30 mg/kg): 5/7 and 4/8
- anthelmintic effect against microfilaria (mf) ([2]; dogs, administration of 30 mg/Kg repeated three times): marked anthelmintic effect

SMILES: CC=CCN(OC)C(C)=O [Compound B7, N-crotyl-N-acetyl-O-methylhydroxylamine]
- inhibition in vivo at 30 mg/kg [1, 4]: 100%
- inhibition in vivo at 50 mg/kg [1, 5]: 100%

SMILES: C=CCON(CC=C)C(=O)CCCCCCCCCCCCCCCCC [Compound C5]
- inhibition in vivo at 30 mg/kg [1, 6]: 80 to 90%
- inhibition in vivo at 50 mg/kg [1, 7]: 80 to 90%
- inhibition in vivo at 25 ppm [3, 8]: 80 to 90%
- inhibition in vivo at 50 ppm [3, 9]: 100%

SMILES: C#CCONCC=C [Compound D5]
- inhibition in vivo at 15 mg/kg [1, 10]: 100%
- inhibition in vivo at 30 mg/kg [1, 6]: 100%
- Anthelmintic effect after 48 hours ([1]; chicken, 15 mg/Kg oral in gelatin capsule, chickens No.1-3, 15 mg/kg): +++ (100%)
- Anthelmintic effect after 48 hours [1, 6]: +++ (100%)
- inhibition in vivo at 25 ppm [3, 8]: 80 to 90%
- inhibition in vivo at 50 ppm [3, 9]: 100%

SMILES: C=CCN(C=O)OCC [Compound B15, N-allyl-N-formyl-O-ethylhydroxylamine]
- inhibition in vivo at 30 mg/kg [1, 4]: 100%
- inhibition in vivo at 50 mg/kg [1, 5]: 100%
- inhibition in vivo at 20 ppm [3, 11]: 80 to 90%
- inhibition in vivo at 50 ppm [3, 12]: 100%

SMILES: C=CCN(OCC)C(=O)c1ccccc1 [Compound B13, N-allyl-N-benzoyl-0-ethylhydroxylamine]
- inhibition in vivo at 30 mg/kg [1, 4]: 100%
- inhibition in vivo at 50 mg/kg [1, 5]: 100%

SMILES: C=CCN(OC)C(=O)CCC [Compound B3, N-allyl-N-butylyl-O-methylhydroxylamine]
- Anthelmintic effect after 48 hours [1, 4]: +++ (100%)
- Anthelmintic effect after 48 hours [1, 5]: +++ (100%)
- anthelmintic effect ([3]; chickens, 20 ppm added to feed, worm count on 21st day, one value per chicken): ++ (80 - 90%)
- Change of E.P.G. Before administration [3, 13]: 5,600 E.P.G. and 7,900 E.P.G.
- Change of E.P.G. 7th day [3, 13]: 3.100 E.P.G. and 3,000 E.P.G.
- anthelmintic effect ([3]; chickens, 50 ppm added to feed, worm count on 21st day, one value per chicken): +++ (100%)
- Change of E.P.G. Before administration [3, 14]: 10,700 E.P.G. and 14,300 E.P.G.
- Change of E.P.G. 21st day [3, 14]: 0 E.P.G.

SMILES: C=CCON(C=O)CC=C [Compound C8]
- inhibition in vivo at 30 mg/kg [1, 6]: 100%
- inhibition in vivo at 50 mg/kg [1, 7]: 100%
- inhibition in vivo at 25 ppm [3, 8]: 100%
- inhibition in vivo at 50 ppm [3, 9]: 100%
- Change of E.P.G. 21st day ([3]; chicken, 25 ppm in feed): 0
- Change of E.P.G. 21st day ([3]; chicken, 50 ppm in feed): 0

SMILES: CC=CCNOCC [Compound D7]
- inhibition in vivo at 30 mg/kg [1, 6]: 100%

SMILES: C=CCN(OCC)C(=O)CCCCCCCCCCCCCCCCC [Compound B12, N-allyl-N-stearoyl-O-ethylhydroxylamine]
- inhibition in vivo at 30 mg/kg [1, 4]: 100%
- inhibition in vivo at 50 mg/kg [1, 5]: 100%

SMILES: C=CCN(OCCC)C(C)=O [Compound B17, N-allyl-N-acetyl-O-propylhydroxylamine]
- inhibition in vivo at 30 mg/kg [1, 4]: 100%
- inhibition in vivo at 50 mg/kg [1, 5]: 100%
- inhibition in vivo at 20 ppm [3, 11]: 80 to 90%
- inhibition in vivo at 50 ppm [3, 12]: 100%

SMILES: C=CCN(OCCCC)C(C)=O [Compound B18, N-allyl-N-acetyl-0-butylhydroxylamine]
- inhibition in vivo at 30 mg/kg [1, 4]: 100%
- inhibition in vivo at 50 mg/kg [1, 5]: 100%
- inhibition in vivo at 20 ppm [3, 11]: 100%
- inhibition in vivo at 50 ppm [3, 12]: 100%

SMILES: C=CCN(OCC)C(=O)CC(C)C [Compound B11, N-allyl-N-isovaleroyl-O-ethylhydroxylamine]
- inhibition in vivo at 30 mg/kg [1, 4]: 100%
- inhibition in vivo at 50 mg/kg [1, 5]: 100%

SMILES: C#CCNOCCC [Compound D11]
- inhibition in vivo at 30 mg/kg [1, 6]: 100%

SMILES: C=CCN(OC)C(=O)CC [Compound B2, N-allyl-N-propionyl-O-methylhydroxylamine]
- inhibition in vivo at 30 mg/kg [1, 4]: 100%
- inhibition in vivo at 50 mg/kg [1, 5]: 100%
- inhibition in vivo at 20 ppm [3, 11]: 80 to 90%
- inhibition in vivo at 50 ppm [3, 12]: 100%

SMILES: C=CCN(OC)C(=O)CCCCCCC/C=C\CCCCCCCC [Compound B4, N-allyl-N-oleoyl-O-methylhydroxylamine]
- inhibition in vivo at 30 mg/kg [1, 4]: 100%
- inhibition in vivo at 50 mg/kg [1, 5]: 100%
- inhibition in vivo at 20 ppm [3, 11]: 100%
- inhibition in vivo at 50 ppm [3, 12]: 100%

SMILES: CC=CCN(OCC)C(C)=O [Compound B16, N-crotyl-N-acetyl-O-ethylhydroxylamine]
- inhibition in vivo at 30 mg/kg [1, 4]: 100%
- inhibition in vivo at 50 mg/kg [1, 5]: 100%
- inhibition in vivo at 20 ppm [3, 11]: 100%
- inhibition in vivo at 50 ppm [3, 12]: 100%

SMILES: C=CCNOCC=C [Compound D4]
- inhibition in vivo at 15 mg/kg [1, 10]: 80 to 90%
- inhibition in vivo at 30 mg/kg [1, 6]: 100%
- inhibition in vivo at 25 ppm [3, 8]: 80 to 90%
- inhibition in vivo at 50 ppm [3, 9]: 100%

SMILES: C=CCN(OCC)C(=O)CCC [Compound B10, N-allyl-N-butylyl-0-ethylhydroxylamine]
- inhibition in vivo at 30 mg/kg [1, 4]: 100%
- inhibition in vivo at 50 mg/kg [1, 5]: 100%

SMILES: C=CCN(OCC)C(=O)c1ccc(F)cc1 [Compound B14, N-allyl-N-(p-fluorobenzoyl)-O-ethylhydroxylamine]
- inhibition in vivo at 30 mg/kg [1, 4]: 100%
- inhibition in vivo at 50 mg/kg [1, 5]: 100%

SMILES: C=CCNOCCC [Compound D2, N-allyl-0-propylhydroxylamine]
- inhibition in vivo at 30 mg/kg [1, 6]: 100%
- inhibition in vivo at 25 ppm [3, 8]: 80 to 90%
- inhibition in vivo at 50 ppm [3, 9]: 100%

SMILES: C#CCNOCC=C [Compound D13, N-propargyl-O-allylhydroxylamine]
- inhibition in vivo at 15 mg/kg [1, 10]: 80 to 90%
- inhibition in vivo at 30 mg/kg [1, 6]: 100%
- inhibition in vivo at 20 mg/kg ([2]; Dirofilaria immitis, sc, 240 h, dog, 20 mg/Kg x 3, subcutaneous injection, read-out: Effect on adult filaria: Percent of worms killed): 63%
- inhibition in vivo at 20 mg/kg ([2]; Dirofilaria immitis, sc, 240 h, dogs, administration of 20 mg/Kg repeated three times, given as about 50% or more, read-out: anthelmintic effect against adult filaria): ≥ 50%
- Number of microfilaria/20µl On 10th day after the administration ([2]; dog, 20 mg/Kg x 3, subcutaneous injection): 0 /20µl
- Effect on adult filaria: Number of worms killed/ Total parasite ([2]; dog, 20 mg/Kg x 3, subcutaneous injection, 20 mg/kg): 21/33 and 20/30
- Number of microfilaria/20µl Before administration ([2]; dog, before 20 mg/Kg x 3 subcutaneous injection (baseline)): 33 /20µl and 26 /20µl
- anthelmintic effect against microfilaria (mf) ([2]; dogs, administration of 20 mg/Kg repeated three times): marked anthelmintic effect

SMILES: C=CCN(C=O)OC [Compound B6, N-allyl-N-formyl-O-methylhydroxylamine]
- inhibition in vivo at 30 mg/kg [1, 4]: 100%
- inhibition in vivo at 50 mg/kg [1, 5]: 100%
- inhibition in vivo at 20 ppm [3, 11]: 80 to 90%
- inhibition in vivo at 50 ppm [3, 12]: 100%

SMILES: C=CCONCC=CC [Compound D8]
- inhibition in vivo at 15 mg/kg [1, 10]: 80 to 90%
- inhibition in vivo at 30 mg/kg [1, 6]: 100%
